We go through four molecules from patent EP0046990A2, “2-Halogeno-4-alkyl-4,7-dihydro-7-oxo-thieno(3,2-b)-pyridine-6-carboxylic acids, salts thereof at the carboxyl group, pharmaceutical use thereof, and intermediates thereof” (KANEBO, LTD., priority 1980, dated 1982).

Values after ≈ are worked out from the molar mass of the structure shown.

The test system of data set [1] is Staphylococcus aureus 209-P. Put plainly: antimicrobial test (MIC). In kind it is cell-based.
Data set [2] concerns Bacillus sub-tillis ATCC 6633. Put plainly: antimicrobial test (MIC). To be noted: ATCC6633. The data set is classed as cell-based.
A further data set relates to Escherichia coli NIHJ. Put plainly: antimicrobial test (MIC). The data set is classed as cell-based.
In another data set the test system is Escherichia coli K-12. Put plainly: antimicrobial test (MIC). The data set is classed as cell-based. Conditions: K12.
Data set [3] relates to Klebsiella pneumoniae IFO 3512. The data set is described as follows: antimicrobial test (MIC). In kind it is cell-based. To be noted: IFO3512.
The test system of data set [4] is Serratia marcescens IFO 3046. Put plainly: antimicrobial test (MIC). In kind it is cell-based. To be noted: IFO3046.
In another data set the test system is Proteus vulgaris OX-19. Put plainly: antimicrobial test (MIC). Conditions: OX19. In kind it is cell-based.
The next data set relates to Proteus mirabilis 1287. Put plainly: antimicrobial test (MIC). In kind it is cell-based.
A short description of a further data set: in vivo. To be noted: mouse, oral administration to mice. The source says: The compounds of this invention have low toxicity.

As to `CCn1cc(C(=O)O)c(=O)c2sc(Cl)cc21` [Compound A, 2-chloro-4,7-dihydro-4-ethyl-7-oxo-thieno(3,2-b)pyridine-6-carboxylic acid], the MIC is greater than 100 µg/mL in data set [1]; 12.5 µg/mL (≈ 48.5 µM) in data set [2]; 1.56 µg/mL (≈ 6.05 µM) with Escherichia coli NIHJ; 12.5 µg/mL (≈ 48.5 µM) against Escherichia coli K-12; 6.25 µg/mL (≈ 24.3 µM) in [3]; 3.13 µg/mL (≈ 12.1 µM) in data set [4]. In addition, the minimal inhibitory concentration (MIC) with Proteus vulgaris OX-19 is 12.5 µg/mL (≈ 48.5 µM); against Proteus mirabilis 1287, 6.25 µg/mL (≈ 24.3 µM).
Turning to `CCn1cc(C(=O)O)c(=O)c2sc(Br)cc21` [Compound B, 2-bromo-4,7-dihydro-4-ethyl-7-oxo-thieno(3,2-b)pyridine-6-carboxylic acid], the MIC in [1] is greater than 100 µg/mL; in data set [2], 6.25 µg/mL (≈ 20.7 µM); in the data set on Escherichia coli NIHJ, 1.56 µg/mL (≈ 5.16 µM); against Escherichia coli K-12 it was 6.25 µg/mL (≈ 20.7 µM); in data set [3], 3.13 µg/mL (≈ 10.4 µM); in [4], 1.56 µg/mL (≈ 5.16 µM). For the same molecule, the MIC in the data set on Proteus vulgaris OX-19 came to 6.25 µg/mL (≈ 20.7 µM); with Proteus mirabilis 1287 it was 3.13 µg/mL (≈ 10.4 µM).
As to `CCn1cc(C(=O)O)c(=O)c2sc(I)cc21` [Compound C, 2-iodo-4,7-dihydro-4-ethyl-7-oxo-thieno(3,2-b)pyridine-6-carboxylic acid], the MIC in [1] was 25 µg/mL (≈ 71.6 µM); in data set [2] it was 1.56 µg/mL (≈ 4.47 µM); with Escherichia coli NIHJ, 1.56 µg/mL (≈ 4.47 µM); with Escherichia coli K-12, 3.13 µg/mL (≈ 8.96 µM); in data set [3], 1.56 µg/mL (≈ 4.47 µM); in [4] it was 0.78 µg/mL (≈ 2.23 µM). The minimal inhibitory concentration (MIC) in the data set on Proteus vulgaris OX-19 and in the data set on Proteus mirabilis 1287 was 0.78 µg/mL (≈ 2.23 µM) each time. Moreover, the LD50 in the data set “in vivo” was found to be 2800 mg/kg.
In the case of `CCn1cc(C(=O)O)c(=O)c2ccc(C)nc21` [Nalidixic acid, reference compound], the minimum inhibitory concentration (MIC) in [1] is greater than 100 µg/mL; in data set [2], 3.13 µg/mL (≈ 13.5 µM); in the data set on Escherichia coli NIHJ it was 1.56 µg/mL (≈ 6.72 µM); in the data set with Escherichia coli K-12, 6.25 µg/mL (≈ 26.9 µM); in [3] it was 1.56 µg/mL (≈ 6.72 µM); in [4], 1.56 µg/mL (≈ 6.72 µM). The MIC in the data set with Proteus vulgaris OX-19 and against Proteus mirabilis 1287 was 3.13 µg/mL (≈ 13.5 µM) throughout.
